How the values were obtained:
[1] = system: MCF10A; assay: 53BP1 radiation induced foci (RIF) time response in MCF10A exposed to X-rays under ATM inhibition, fitted with Eq. 1; assay type: cell-based, human; conditions: for T1/2_1 (RIF induction half-life): 10 μM inhibitor; for α, RIF/Gy (absolute RIF yield): 10 μM inhibitor from 1 h pre-IR, one experiment
Description: To test the validity of the mathematical model further, we perturbed the rates of RIF formation or RIF removal by inhibiting ataxia telangiectasia mutated (ATM) kinase activity with KU55933 (see Materials and Methods).
The cells were fixed for immunofluorescence at specific intervals after exposure to X-rays. We typically refer to “low dose” or “high dose” as doses below or equal to 0.1 Gy or larger than 1 Gy, respectively. For high-LET IR, cells were irradiated at the accelerator beam line of the National Aeronautics and Space Administration Space […] Laboratory at Brookhaven National Laboratory.
We are only briefly describing these procedures. For complete information, see Supplemental Information Materials and Methods. Immunostaining using anti-53BP1 (rabbit polyclonal, Bethyl Laboratories A300-272A) was performed according to previous staining protocol (Costes et al. (2006) Radiat. Res. 165: 505-515). For image acquisition, both live and fixed MCF10A were imaged using a Zeiss plan-apochromat 40× dry objective (N.A. of 0.95) at a fixed exposure time. Nondeconvolved 3D stacks were acquired and used for image analysis (10 slices of 0.5-μm steps for fixed cells and 3 slices of 1-μm step for live cells). All image manipulations, foci analysis, and statistics were done with Matlab (MathWorks, Inc.) and DIPimage (image processing toolbox for Matlab, Delft University of Technology). In contrast to previous intensity-based methods for RIF identification (Bocker and Iliakis (2006) Radiat. Res. 165: 113-124), we used a pattern recognition approach to detect RIF by applying a wavelet morphological filter to enhance RIF peaks in the image while reducing noise from nonspecific signals (Olivo-Marin (2002) Pattern Recognition 35: 1989-1996). Nuclear space occupied by RIF was identified by applying a constant threshold on the wavelet filtered image, and watershed algorithm was used to separate touching RIF. To test if focus size could affect the accuracy of automatic RIF detection, we applied the software on simulated data where foci sizes and densities had different values (i.e., 1 to 40 foci/nucleus were simulated with four distinct sizes: 0.1, 0.4, 1.3, and 2.4 μm^3; FIG. 17). […] Finally, in order to extract the number of “real” RIF from the number of background foci in each scored nucleus, we introduced a background subtraction method that assumes the measured RIF distribution is the result of a convolution between the “real” RIF distribution and the background foci distribution (FIG. 18). For quantification of RIF in live cells, we counted both the cumulative and instantaneous number of RIF manually in 3D time-lapse images. Time interval varied between experiments and was generally set to 10-min interval for the first hour, followed by 30-min interval afterwards. This setting was optimum to minimize phototoxicity and specimen bleaching. Because of the difficulty of software to track individual foci in successive time lapse, analysis had to be done manually in a blind manner on processed images.
In order to interpret RIF kinetics in an unbiased manner, we introduce a simple mathematical model describing RIF formation where one DSB is detected at a rate k leading to one RIF, and one RIF is resolved after repair at a rate k2, assuming both processes are irreversible. This model can be noted as follows:
where α is the number of naked DSB/Gy before formation of RIF and D is the dose delivered to the cell. Alpha (α) should be constant for all doses. Further details are provided in the supporting information materials and methods regarding the way Eq. 1 is fitted.

[2] = target: T1, ataxia telangiectasia mutated (ATM) kinase (Homo sapiens, UniProt Q13315); assay: Inhibition of ATM measured by Western blot of P53-S15p; assay type: cell-based; conditions: 10 μM inhibitor, MCF10A
T1 construct: endogenous in cells; host or cells: MCF10A (human mammary epithelial cells, ATCC)
T1 sequence (Q13315 whole entry, change not shown): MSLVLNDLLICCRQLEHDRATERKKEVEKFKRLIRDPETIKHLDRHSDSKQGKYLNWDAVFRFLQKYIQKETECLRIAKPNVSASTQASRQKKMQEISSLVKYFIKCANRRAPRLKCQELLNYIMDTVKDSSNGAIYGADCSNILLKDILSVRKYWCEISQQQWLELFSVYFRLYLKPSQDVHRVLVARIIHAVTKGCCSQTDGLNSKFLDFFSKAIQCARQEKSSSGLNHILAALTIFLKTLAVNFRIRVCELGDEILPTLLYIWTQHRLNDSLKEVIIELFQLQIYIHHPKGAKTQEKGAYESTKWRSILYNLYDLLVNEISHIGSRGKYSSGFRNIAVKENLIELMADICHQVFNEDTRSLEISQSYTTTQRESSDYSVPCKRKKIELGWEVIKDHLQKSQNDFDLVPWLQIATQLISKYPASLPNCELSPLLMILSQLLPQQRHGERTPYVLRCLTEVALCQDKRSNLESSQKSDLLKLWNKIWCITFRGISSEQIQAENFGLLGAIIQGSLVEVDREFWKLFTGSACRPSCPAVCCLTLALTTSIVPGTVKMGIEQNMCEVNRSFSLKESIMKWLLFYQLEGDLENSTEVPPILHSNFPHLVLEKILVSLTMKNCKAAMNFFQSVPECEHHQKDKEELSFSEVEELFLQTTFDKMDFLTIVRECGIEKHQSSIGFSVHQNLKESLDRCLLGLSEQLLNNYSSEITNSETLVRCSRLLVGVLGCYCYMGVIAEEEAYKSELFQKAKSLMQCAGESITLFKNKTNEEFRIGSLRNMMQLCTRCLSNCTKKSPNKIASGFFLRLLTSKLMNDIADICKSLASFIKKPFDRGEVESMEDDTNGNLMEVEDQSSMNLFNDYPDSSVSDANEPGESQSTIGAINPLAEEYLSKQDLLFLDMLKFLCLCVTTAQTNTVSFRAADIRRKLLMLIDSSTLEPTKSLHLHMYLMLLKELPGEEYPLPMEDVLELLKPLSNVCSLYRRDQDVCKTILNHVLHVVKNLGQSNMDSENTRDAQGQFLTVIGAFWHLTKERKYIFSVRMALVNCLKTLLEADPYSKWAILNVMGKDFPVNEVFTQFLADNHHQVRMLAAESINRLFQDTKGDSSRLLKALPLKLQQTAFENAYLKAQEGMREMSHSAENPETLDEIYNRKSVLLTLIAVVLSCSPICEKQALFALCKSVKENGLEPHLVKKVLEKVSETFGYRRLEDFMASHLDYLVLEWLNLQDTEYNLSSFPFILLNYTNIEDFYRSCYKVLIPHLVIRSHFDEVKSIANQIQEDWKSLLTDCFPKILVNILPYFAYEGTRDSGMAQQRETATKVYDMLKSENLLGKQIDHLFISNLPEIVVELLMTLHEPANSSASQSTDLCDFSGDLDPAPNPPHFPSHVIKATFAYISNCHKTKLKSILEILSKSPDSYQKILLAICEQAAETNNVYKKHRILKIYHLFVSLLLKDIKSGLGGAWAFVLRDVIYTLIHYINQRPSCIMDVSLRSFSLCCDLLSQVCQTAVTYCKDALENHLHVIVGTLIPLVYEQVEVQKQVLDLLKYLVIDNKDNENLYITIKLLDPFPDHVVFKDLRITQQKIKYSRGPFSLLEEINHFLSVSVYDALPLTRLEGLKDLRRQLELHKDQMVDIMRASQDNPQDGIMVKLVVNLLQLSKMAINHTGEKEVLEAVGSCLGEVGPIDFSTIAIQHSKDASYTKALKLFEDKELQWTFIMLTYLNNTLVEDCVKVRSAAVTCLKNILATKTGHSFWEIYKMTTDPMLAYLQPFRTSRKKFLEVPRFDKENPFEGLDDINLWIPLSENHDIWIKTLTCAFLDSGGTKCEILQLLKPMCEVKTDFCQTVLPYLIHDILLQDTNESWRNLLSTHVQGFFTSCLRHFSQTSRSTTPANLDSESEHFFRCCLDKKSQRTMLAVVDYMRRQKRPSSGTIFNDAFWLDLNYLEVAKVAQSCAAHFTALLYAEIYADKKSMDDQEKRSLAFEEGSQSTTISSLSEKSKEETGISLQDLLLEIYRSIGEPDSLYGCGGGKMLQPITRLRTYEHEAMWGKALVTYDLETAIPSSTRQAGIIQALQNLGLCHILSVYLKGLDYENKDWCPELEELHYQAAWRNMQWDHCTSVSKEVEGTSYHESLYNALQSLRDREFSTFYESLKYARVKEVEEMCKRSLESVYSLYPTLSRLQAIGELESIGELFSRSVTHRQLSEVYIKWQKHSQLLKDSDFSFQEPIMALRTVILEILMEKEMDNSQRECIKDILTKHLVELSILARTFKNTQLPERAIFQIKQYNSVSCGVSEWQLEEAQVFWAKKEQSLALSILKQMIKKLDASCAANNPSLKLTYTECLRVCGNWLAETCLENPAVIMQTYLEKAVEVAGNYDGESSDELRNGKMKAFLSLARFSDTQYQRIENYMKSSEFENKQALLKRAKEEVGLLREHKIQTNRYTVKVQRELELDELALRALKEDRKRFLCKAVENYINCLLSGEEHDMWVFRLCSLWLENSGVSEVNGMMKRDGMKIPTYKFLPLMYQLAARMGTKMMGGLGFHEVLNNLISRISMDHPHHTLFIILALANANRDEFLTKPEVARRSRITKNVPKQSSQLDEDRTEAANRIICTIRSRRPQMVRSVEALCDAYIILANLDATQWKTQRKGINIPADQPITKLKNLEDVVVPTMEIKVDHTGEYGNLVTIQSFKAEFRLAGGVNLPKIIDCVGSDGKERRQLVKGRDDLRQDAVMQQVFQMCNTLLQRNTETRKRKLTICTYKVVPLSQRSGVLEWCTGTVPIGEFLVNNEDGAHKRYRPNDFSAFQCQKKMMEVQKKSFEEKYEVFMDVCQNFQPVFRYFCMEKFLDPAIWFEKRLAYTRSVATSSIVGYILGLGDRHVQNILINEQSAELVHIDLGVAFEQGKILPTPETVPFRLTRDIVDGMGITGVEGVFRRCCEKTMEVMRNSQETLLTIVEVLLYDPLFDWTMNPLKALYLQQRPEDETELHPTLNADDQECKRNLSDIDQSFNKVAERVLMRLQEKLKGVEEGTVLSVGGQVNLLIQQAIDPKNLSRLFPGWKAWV

Structure (SMILES): O=c1cc(-c2cccc3c2Sc2ccccc2S3)oc(N2CCOCC2)c1 [KU55933]
- T1/2_1 (RIF induction half-life) ([1]; 0.1 Gy X-rays): 8.3 min
- α, RIF/Gy (absolute RIF yield) ([1]; 0.1 Gy X-rays): 25±17 RIF/Gy
- α, RIF/Gy (absolute RIF yield) ([1]; 0.1 Gy X-rays, listed as ATM inhibition): 25 RIF/Gy
- T1/2_1 (RIF induction half-life) ([1]; 0.4 Gy X-rays): 5.9 min
- α, RIF/Gy (absolute RIF yield) ([1]; 0.4 Gy X-rays): 25 RIF/Gy
- T1/2_1 (RIF induction half-life) ([1]; 1 Gy X-rays): 4.2 min
- α, RIF/Gy (absolute RIF yield) ([1]; 1 Gy X-rays): 19 RIF/Gy
- T1/2_1 (RIF induction half-life) ([1]; 2 Gy X-rays): 2.6 min
- α, RIF/Gy (absolute RIF yield) ([1]; 2 Gy X-rays): 12±2 RIF/Gy
- α, RIF/Gy (absolute RIF yield) ([1]; 2 Gy X-rays, listed as ATM inhibition): 12 RIF/Gy
- detection half-lives with versus without ATM inhibition ([1]; across all doses): comparable
- reduction of α versus normal conditions ([1]; after 0.1 Gy of X-rays): 3 fold
- reduction of α versus normal conditions ([1]; after 2 Gy of X-rays): no significant reduction
- RIF resolution with versus without ATM inhibition ([1]; at high doses): significantly slower
- drop of RIF yield between 0.1 and 2 Gy ([1]; under ATM inhibition): 2 fold
- overall number of RIF ([1]; under ATM inhibition versus normal media): largely diminished
- phosphorylated p53 at S15 [2]: reduction
